# US11053230B2, “3-hydroxy-imidazolidin-4-one compounds as inhibitors of indoleamine 2,3-dioxygenase” (Netherlands Translational Research Center B.V., priority 2017, dated 2021)
# Where “and” joins values, the source holds several entries; their conditions need not be identical. Equal values may be shown once.
# Molecular target: T1, IDO1 (Homo sapiens, UniProt P14902)
# T1 construct: Recombinant full-length IDO1 (Seegers, N., et al.) and all other assay components were diluted in IDO1 reaction buffer; made in house
# Experiment: Biochemical IDO1 assay (NFK GreenScreen)
# Details: NFK GreenScreen; 25 nM IDO1, 100 μM L-tryptophan; read-out: IC50, inhibitory potency on IDO1
# Description: Inhibition of IDO1 activity can be measured by determining the enzymatic conversion of L-tryptophan into N-formylkynurenine (NFK) in a reaction mixture containing IDO1 and test compound. The formation of NFK can be detected directly by, for instance, high-performance liquid chromatography (HPLC) methods, or by intrinsic fluorescence.
# Compounds were serially diluted in dimethylsulfoxide (DMSO) and finally in IDO1 reaction buffer, consisting of 50 mM NaH2PO4, pH7.0, supplemented with 0.05% Tween-20 (cat. No. P7949; Sigma Aldrich) and 1% glycerol. Recombinant full-length IDO1 (Seegers, N., et al.) and all other assay components were diluted in IDO1 reaction buffer. […] Subsequently, 10 μl of 0.4 mM of the substrate L-tryptophan was added, i.e., the final concentration of L-tryptophan was 100 μM. The DMSO concentration in the assay was 0.3%. […] Incubation was continued for 60 min at room temperature. Then, 10 μl of NFK Green™ (NTRC, Oss, The Netherlands) was added, the plate was sealed, and the reaction was developed for 3 hours at 37° C. To determine the production of N-formyl kynurenine (NFK), the seal was removed and fluorescence was read on an EnVision multimode reader (Perkin Elmer, Waltham, Mass., USA). IC50 were calculated using XLfit™ software (ID Business Solutions, Ltd., Surrey, U.K.).
# T1 sequence (P14902 whole entry): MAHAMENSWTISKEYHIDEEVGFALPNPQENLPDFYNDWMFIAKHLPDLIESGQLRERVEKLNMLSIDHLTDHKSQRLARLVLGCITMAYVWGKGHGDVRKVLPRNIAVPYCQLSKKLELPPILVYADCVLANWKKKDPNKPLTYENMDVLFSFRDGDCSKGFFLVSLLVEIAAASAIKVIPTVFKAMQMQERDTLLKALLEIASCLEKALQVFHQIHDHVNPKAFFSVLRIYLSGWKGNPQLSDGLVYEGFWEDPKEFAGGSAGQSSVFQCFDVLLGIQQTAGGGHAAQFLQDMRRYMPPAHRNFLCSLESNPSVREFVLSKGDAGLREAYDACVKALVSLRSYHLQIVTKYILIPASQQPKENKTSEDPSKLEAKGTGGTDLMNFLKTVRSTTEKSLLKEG
row,Compound,IC50
1,"Cc1cccc(F)c1C(=O)N1CC(=O)N(O)C1c1cc(Br)cs1 (centres unmarked) [Example 65, 2-(4-Bromo-2-thienyl)-1-(2-fluoro-6-methyl-benzoyl)-3-hydroxy-imidazolidin-4-one]",≤ 1000 nM
2,"O=C1CN(C(=O)c2c(F)cccc2F)C(c2cc(Br)cs2)N1O (centres unmarked) [Example 8, 2-(4-Bromo-2-thienyl)-1-(2,6-difluorobenzoyl)-3-hydroxy-imidazolidin-4-one]",≤ 1000 nM
3,"O=C1CN(C(=O)c2c(Cl)cccc2Cl)C(c2cc(Br)cs2)N1O (centres unmarked) [Example 10, 2-(4-Bromo-2-thienyl)-1-(2,6-dichlorobenzoyl)-3-hydroxy-imidazolidin-4-one]",≤ 5000 nM and 1000 to 5000 nM
4,"CC(C)C#Cc1cc(F)c(C(=O)N2CC(=O)N(O)C2c2cc(Br)cs2)c(F)c1 (centres unmarked) [Example 50, 2-(4-Bromo-2-thienyl)-1-[2,6-difluoro-4-(3-methylbut-1-ynyl)benzoyl]-3-hydroxy-imidazolidin-4-one]",≤ 1000 nM
5,"O=C1CN(C(=O)C2CCCCC2)C(c2cc(Br)cs2)N1O (centres unmarked) [Example 67, 2-(4-Bromo-2-thienyl)-1-(cyclohexanecarbonyl)-3-hydroxy-imidazolidin-4-one]",≤ 5000 nM and 1000 to 5000 nM
6,"O=C1CN(C(=O)c2ccccc2F)C(c2ccc(Br)s2)N1O (centres unmarked) [Example 2, 2-(5-Bromo-2-thienyl)-1-(2-fluorobenzoyl)-3-hydroxy-imidazolidin-4-one]",≤ 1000 nM
7,"Cc1cc(C2N(O)C(=O)CN2C(=O)c2c(F)cccc2F)sc1Cl (centres unmarked) [Example 112, 2-(5-Chloro-4-methyl-2-thienyl)-1-(2,6-difluorobenzoyl)-3-hydroxy-imidazolidin-4-one]",≤ 1000 nM
8,"N#Cc1cc(F)c(C(=O)N2CC(=O)N(O)C2c2cc(Br)cs2)c(F)c1 (centres unmarked) [Example 117, 4-[2-(4-Bromo-2-thienyl)-3-hydroxy-4-oxo-imidazolidine-1-carbonyl]-3,5-difluoro-benzonitrile]",≤ 1000 nM
9,"O=C1CN(C(=O)c2c(F)cccc2F)C(c2ccc([N+](=O)[O-])s2)N1O (centres unmarked) [Example 16, 1-(2,6-Difluorobenzoyl)-3-hydroxy-2-(5-nitro-2-thienyl)imidazolidin-4-one]",≤ 5000 nM and 1000 to 5000 nM
10,"C#Cc1csc(C2N(O)C(=O)CN2C(=O)c2c(F)cccc2F)c1 (centres unmarked) [Example 1, 1-(2,6-Difluorobenzoyl)-2-(4-ethynyl-2-thienyl)-3-hydroxy-imidazolidin-4-one]",≤ 1000 nM
11,"NC1(C#Cc2cc(F)c(C(=O)N3CC(=O)N(O)C3c3cc(Br)cs3)c(F)c2)CC1 (centres unmarked) [Example 89, 1-[4-[2-(1-Aminocyclopropyl)ethynyl]-2,6-difluoro-benzoyl]-2-(4-bromo-2-thienyl)-3-hydroxy-imidazolidin-4-one]",≤ 1000 nM
12,"O=C1CN(C(=O)c2c(F)cccc2F)C(c2cc(Br)cs2)N1O (single isomer, unassigned) [Example 48b, 2-(4-Bromo-2-thienyl)-1-(2,6-difluorobenzoyl)-3-hydroxy-imidazolidin-4-one]",≤ 1000 nM
13,"O=C1CN(C(=O)c2c(F)ccc(B(O)O)c2F)C(c2cc(Br)cs2)N1O (centres unmarked) [Example 126, [3-[2-(4-Bromo-2-thienyl)-3-hydroxy-4-oxo-imidazolidine-1-carbonyl]-2,4-difluoro-phenyl]boronic acid]",≤ 5000 nM and 1000 to 5000 nM
14,"Cc1ccccc1-c1ccc(F)c(C(=O)N2CC(=O)N(O)C2c2cc(Br)cs2)c1F (centres unmarked) [Example 133, 2-(4-Bromo-2-thienyl)-1-[2,6-difluoro-3-(o-tolyl)benzoyl]-3-hydroxy-imidazolidin-4-one]",≤ 1000 nM
15,"O=C1CN(C(=O)c2c(F)cccc2F)C(c2cc(Br)co2)N1O (centres unmarked) [Example 23, 2-(4-Bromo-2-furyl)-1-(2,6-difluorobenzoyl)-3-hydroxy-imidazolidin-4-one]",≤ 5000 nM and 1000 to 5000 nM
16,"Cc1sc(C2N(O)C(=O)CN2C(=O)c2c(F)cccc2F)cc1Br (centres unmarked) [Example 113, 2-(4-bromo-5-methyl-2-thienyl)-1-(2,6-difluorobenzoyl)-3-hydroxy-imidazolidin-4-one]",≤ 1000 nM
17,"O=C1CN(C(=O)c2cccnc2Cl)C(c2cc(Br)cs2)N1O (centres unmarked) [Example 66, 2-(4-Bromo-2-thienyl)-1-(2-chloropyridine-3-carbonyl)-3-hydroxy-imidazolidin-4-one]",≤ 1000 nM
18,"O=C1CN(C(=O)c2ccccc2Cl)C(c2cc(Br)cs2)N1O (centres unmarked) [Example 55, 2-(4-Bromo-2-thienyl)-1-(2-chlorobenzoyl)-3-hydroxy-imidazolidin-4-one]",≤ 1000 nM

row,Compound,IC50
1,"CSc1ccc(C2N(O)C(=O)CN2C(=O)c2c(F)cccc2F)s1 (centres unmarked) [Example 14, 1-(2,6-Difluorobenzoyl)-3-hydroxy-2-(5-methylsulfanyl-2-thienyl)imidazolidin-4-one]",≤ 5000 nM and 1000 to 5000 nM
2,"O=C1CN(C(=O)c2c(F)ccc(-c3ccc(F)s3)c2F)C(c2cc(Br)cs2)N1O (centres unmarked) [Example 132, 2-(4-Bromo-2-thienyl)-1-[2,6-difluoro-3-(5-fluoro-2-thienyl)benzoyl]-3-hydroxy-imidazolidin-4-one]",≤ 1000 nM
3,"O=C1CN(C(=O)c2c(F)cccc2F)C(c2cc(I)cs2)N1O (centres unmarked) [Example 36, 1-(2,6-Difluorobenzoyl)-3-hydroxy-2-(4-iodo-2-thienyl)imidazolidin-4-one]",≤ 1000 nM
4,"O=C1CN(C(=O)c2ccc(Cc3ccccc3)cc2)C(c2cc(Br)cs2)N1O (centres unmarked) [Example 53, 1-(4-Benzylbenzoyl)-2-(4-bromo-2-thienyl)-3-hydroxy-imidazolidin-4-one]",≤ 5000 nM and 1000 to 5000 nM
5,"O=C1CN(C(=O)c2c(F)ccc(-c3cccs3)c2F)C(c2cc(Br)cs2)N1O (centres unmarked) [Example 131, 2-(4-Bromo-2-thienyl)-1-[2,6-difluoro-3-(2-thienyl)benzoyl]-3-hydroxy-imidazolidin-4-one]",≤ 1000 nM
6,"O=C1CN(C(=O)c2ccccc2)C(c2cc(Br)cs2)N1O (centres unmarked) [Example 12, 1-Benzoyl-2-(4-bromo-2-thienyl)-3-hydroxy-imidazolidin-4-one]",≤ 5000 nM and 1000 to 5000 nM
7,"O=C1CN(C(=O)c2c(F)ccc([N+](=O)[O-])c2F)C(c2cc(Br)cs2)N1O (centres unmarked) [Example 106, 2-(4-Bromo-2-thienyl)-1-(2,6-difluoro-3-nitro-benzoyl)-3-hydroxy-imidazolidin-4-one]",≤ 1000 nM
8,"C#Cc1cc(F)c(C(=O)N2CC(=O)N(O)C2c2cc(Br)cs2)c(F)c1 (centres unmarked) [Example 38, 2-(4-Bromo-2-thienyl)-1-(4-ethynyl-2,6-difluoro-benzoyl)-3-hydroxy-imidazolidin-4-one]",≤ 1000 nM
9,"O=C1CN(Cc2ccccc2F)C(c2cc(Br)cs2)N1O (centres unmarked) [Example 43, 2-(4-Bromo-2-thienyl)-1-[(2-fluorophenyl)methyl]-3-hydroxy-imidazolidin-4-one]",≤ 1000 nM
10,"O=C1CN(C(=O)c2c(F)cc(C3CC3)cc2F)C(c2cc(Br)cs2)N1O (centres unmarked) [Example 82, 2-(4-Bromo-2-thienyl)-1-(4-cyclopropyl-2,6-difluoro-benzoyl)-3-hydroxy-imidazolidin-4-one]",≤ 1000 nM
11,"C[C@@H](c1ccccc1)N1CC(=O)N(O)C1c1csc(Br)c1 (single isomer, unassigned) [Example 121b]",≤ 1000 nM
12,"O=C1CN(Cc2ccccc2F)C(c2ccc(Br)s2)N1O (centres unmarked) [Example 41, 2-(5-Bromo-2-thienyl)-1-[(2-fluorophenyl)methyl]-3-hydroxy-imidazolidin-4-one]",≤ 1000 nM
13,"O=C1CN(C(=O)c2c(F)ccc(C(F)(F)F)c2F)C(c2csc(Br)c2)N1O (centres unmarked) [Example 103, 2-(5-Bromo-3-thienyl)-1-[2,6-difluoro-3-(trifluoromethyl)benzoyl]-3-hydroxy-imidazolidin-4-one]",≤ 1000 nM
14,"O=C1CN(Cc2c(F)cccc2F)C(c2cc(Br)cs2)N1O (single isomer, unassigned) [Example 45b, 2-(4-Bromo-2-thienyl)-1-[(2,6-difluorophenyl)methyl]-3-hydroxy-imidazolidin-4-one]",≤ 1000 nM
15,"CCc1ccc(C2N(O)C(=O)CN2C(=O)c2c(F)cccc2F)s1 (centres unmarked) [Example 18, 1-(2,6-Difluorobenzoyl)-2-(5-ethyl-2-thienyl)-3-hydroxy-imidazolidin-4-one]",≤ 5000 nM and 1000 to 5000 nM
16,"COc1ccc(F)c(C(=O)N2CC(=O)N(O)C2c2cc(Br)cs2)c1F (centres unmarked) [Example 75, 2-(4-Bromo-2-thienyl)-1-(2,6-difluoro-3-methoxy-benzoyl)-3-hydroxy-imidazolidin-4-one]",≤ 1000 nM
17,"O=C1CN(C(=O)c2c(F)cc(C#CC3CC3)cc2F)C(c2cc(Br)cs2)N1O (single isomer, unassigned) [Example 47b, 2-(4-Bromo-2-thienyl)-1-[4-(2-cyclopropylethynyl)-2,6-difluoro-benzoyl]-3-hydroxy-imidazolidin-4-one]",≤ 1000 nM
18,"N#Cc1csc(C2N(O)C(=O)CN2C(=O)c2c(F)cccc2F)c1 (centres unmarked) [Example 30, 5-[1-(2,6-Difluorobenzoyl)-3-hydroxy-4-oxo-imidazolidin-2-yl]thiophene-3-carbonitrile]",≤ 5000 nM and 1000 to 5000 nM

# Same assay, conditions: stated in the synthesis examples; assay not named
row,Compound,relative activity of the separated isomers
1,"O=C1CN(C(=O)c2c(F)cccc2F)C(c2cc(Br)cs2)N1O (single isomer, unassigned) [Example 48b, 2-(4-Bromo-2-thienyl)-1-(2,6-difluorobenzoyl)-3-hydroxy-imidazolidin-4-one]",most active isomer
2,"C[C@@H](c1ccccc1)N1CC(=O)N(O)C1c1csc(Br)c1 (single isomer, unassigned) [Example 121b]",most active isomer
3,"O=C1CN(Cc2c(F)cccc2F)C(c2cc(Br)cs2)N1O (single isomer, unassigned) [Example 45b, 2-(4-Bromo-2-thienyl)-1-[(2,6-difluorophenyl)methyl]-3-hydroxy-imidazolidin-4-one]",most active isomer
4,"C[C@@H](c1ccccc1)N1CC(=O)N(O)C1c1ccc(Br)s1 (single isomer, unassigned) [Example 120a]",less active isomer
5,"O=C1CN(C(=O)c2c(F)cc(C#CC3CC3)cc2F)C(c2cc(Br)cs2)N1O (single isomer, unassigned) [Example 47b, 2-(4-Bromo-2-thienyl)-1-[4-(2-cyclopropylethynyl)-2,6-difluoro-benzoyl]-3-hydroxy-imidazolidin-4-one]",most active isomer
